Data taken from patent US11786534B2 (TAIHO PHARMACEUTICAL CO., LTD., priority 2019, dated 2023).

Legend:
[1] = target: Ba/F3-EGFR (d746-750/T790M/C797S) (Homo sapiens, UniProt P00533, DEL746-750/T790M/C797S, cells depend on it); test: Growth inhibition of cell line expressing EGFR (d746-750/T790M/C797S); format: cell-based, mouse; details: Test Example 4, Table 13; same procedures as Test Example 2; read-out: BaF3_EGFR (d746-750/T790M/C797S) IC50 value
Excerpt: (§1) Test for inhibitory activity against the growth of cell lines expressing wild-type and mutated EGFRs (in vitro)
(§2) (1) Mouse cell line Ba/F3-EGFR (d746-750/T790M/C797S) transfected with and stably expressing EGFR (d746-750/T790M/C797S), mouse cell Ba/F3-EGFR (L858R/T790M/C797S) transfected with and stably expressing EGFR (L858R/T790M/C797S), and mouse cell line Ba/F3-EGFR (WT) transfected with and stably expressing wild-type EGFR were each suspended in RPMI-1640 cell culture medium (RPMI-1640, 10% FBS, 100 unit/ml penicillin, 0.1 mg/ml streptomycin). In the case of the mouse cell line Ba/F3-EGFR (WT), RPMI-1640 cell culture medium containing EGF at a final concentration of 50 ng/ml was used to suspend this cell line. It should be noted that the mouse cell line Ba/F3-EGFR (d746-750/T790M/C797S) transfected with and stably expressing EGFR (d746-750/T790M/C797S), the mouse cell line Ba/F3-EGFR (L858R/T790M/C797S) transfected with and stably expressing EGFR (L858R/T790M/C797S) and the mouse cell line Ba/F3-EGFR (WT) transfected with and stably expressing wild-type EGFR were prepared by using nucleotide sequences encoding the proteins of SEQ ID NOs: 1 and 2 in accordance with Test Example 1 in WO2018/079310, These cell suspensions were seeded in wells of 96-well flat -bottomed plates. The compounds of the present invention were dissolved in DMSO, and serial dilutions of these test compounds were prepared with DMSO (1000-fold of the final concentration). Each test compound solution in DMSO or DMSO alone was diluted with RPMI-1640 cell culture medium for each cell line, and this dilution was added to wells of the cell culture plate such that the final concentration of DMSO was 0.1%, followed by culture at 37° C. for 3 days in a 5% carbon dioxide gas-containing incubator. Before and after addition of each test compound solution in DMSO, the number of cells was counted using the CellTiter-Glo® system (Promega) on the basis of the protocol recommended by Promega.
(§3) In each cell line, the rate of cell growth inhibition was calculated according to the equation shown below in wells to which each test compound was added at different concentrations. Moreover, the inhibition rate at each concentration was plotted for each test compound, and the concentration of each test compound required to give 50% cell survival rate, i.e., IC50 (nM) was determined by curve fitting software XLfit (IDBS).
(§4) Cell survival rate (%)=T/C×100
(§5) T: emission intensity in a well cultured for 3 days after addition of a test compound solution
(§6) C: emission intensity in a well cultured for 3 days after addition of DMSO
(§7) In accordance with the same procedures as shown in Test Example 2, the compounds of the present invention were tested for their inhibitory activity against the growth of the cell hoes expressing wild-type and mutated EGFRs.

Ba/F3-EGFR (WT) = Ba/F3-EGFR (WT) (Homo sapiens, UniProt P00533); test: Growth inhibition of cell line expressing wild-type EGFR; format: cell-based, mouse; details: Test Example 4, Table 13; same procedures as Test Example 2; read-out: BaF3_EGFR (WT) IC50 value
Excerpt: as §1, §2, §3, §4, §5, §6, §7

[2] = target: Ba/F3-EGFR (L858R/T790M/C797S) (Homo sapiens, UniProt P00533, T790M/C797S/L858R, cells depend on it); test: Growth inhibition of cell line expressing EGFR (L858R/T790M/C797S); format: cell-based, mouse; details: Test Example 4, Table 13; same procedures as Test Example 2; read-out: BaF3_EGFR (L858R/T790M/C797S) IC50 value
Excerpt: as §1, §2, §3, §4, §5, §6, §7

[3] = target: T1, human EGFR (L858R/T790M/C797S) (Homo sapiens, UniProt P00533, C797S/L858R/T790M); test: Inhibitory activity against EGFR (L858R/T790M/C797S) kinase; format: biochemical
T1 construct: made in house; host or cells: Sf9 insect cells, baculovirus
T1 sequence (P00533 with tags, fused parts or gaps T790M/C797S/L858R): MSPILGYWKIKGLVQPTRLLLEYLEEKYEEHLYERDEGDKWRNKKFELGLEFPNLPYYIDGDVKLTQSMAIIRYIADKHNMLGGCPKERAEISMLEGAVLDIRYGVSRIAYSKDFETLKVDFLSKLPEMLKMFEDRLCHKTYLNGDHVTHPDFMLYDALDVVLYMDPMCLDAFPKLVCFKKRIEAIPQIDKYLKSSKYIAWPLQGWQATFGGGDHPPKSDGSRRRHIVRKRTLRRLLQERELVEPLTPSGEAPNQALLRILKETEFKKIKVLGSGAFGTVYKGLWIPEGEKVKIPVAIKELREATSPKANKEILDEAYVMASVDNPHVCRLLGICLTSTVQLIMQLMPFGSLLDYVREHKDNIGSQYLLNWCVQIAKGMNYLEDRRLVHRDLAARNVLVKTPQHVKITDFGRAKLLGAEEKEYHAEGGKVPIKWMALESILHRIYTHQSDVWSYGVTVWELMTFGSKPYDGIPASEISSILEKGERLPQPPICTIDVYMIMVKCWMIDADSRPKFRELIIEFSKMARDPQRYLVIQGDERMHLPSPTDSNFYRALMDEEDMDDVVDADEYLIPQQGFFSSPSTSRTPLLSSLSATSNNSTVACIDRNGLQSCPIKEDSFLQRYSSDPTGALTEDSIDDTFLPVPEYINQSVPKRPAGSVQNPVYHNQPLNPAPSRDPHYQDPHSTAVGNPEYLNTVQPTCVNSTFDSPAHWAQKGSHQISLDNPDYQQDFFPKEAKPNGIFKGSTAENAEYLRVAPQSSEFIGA
Outline: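 GST-tagged cytoplasmic domain of human EGFR L858R/T790M/C797S, expressed in Sf9 insect cells via baculovirus and glutathione-purified. Kinase reaction run at 0.5 μM ATP final; IC50 (nM) determined per compound.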

[4] = target: T2, human EGFR (d746-750/T790M/C797S) (Homo sapiens, UniProt P00533, C797S/DEL746-750/T790M); test: Inhibitory activity against EGFR (d746-750/T790M/C797S) kinase; format: biochemical
T2 construct: made in house; host or cells: Sf9 insect cells, baculovirus
T2 sequence (P00533 with tags, fused parts or gaps DEL746-750/T790M/C797S): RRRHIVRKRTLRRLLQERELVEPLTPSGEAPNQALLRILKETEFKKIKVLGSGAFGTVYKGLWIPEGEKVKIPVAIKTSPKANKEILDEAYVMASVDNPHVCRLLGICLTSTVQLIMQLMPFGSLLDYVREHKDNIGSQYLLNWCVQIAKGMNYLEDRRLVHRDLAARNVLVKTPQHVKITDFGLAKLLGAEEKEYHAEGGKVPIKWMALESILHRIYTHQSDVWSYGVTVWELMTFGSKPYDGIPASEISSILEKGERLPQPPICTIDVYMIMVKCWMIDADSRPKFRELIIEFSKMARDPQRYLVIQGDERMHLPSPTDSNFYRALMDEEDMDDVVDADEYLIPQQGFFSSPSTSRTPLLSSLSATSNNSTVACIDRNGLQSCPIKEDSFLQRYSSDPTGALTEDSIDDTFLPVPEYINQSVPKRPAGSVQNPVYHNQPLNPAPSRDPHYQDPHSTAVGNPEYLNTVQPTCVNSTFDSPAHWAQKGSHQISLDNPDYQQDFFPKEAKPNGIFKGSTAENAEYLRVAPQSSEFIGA
Outline: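 GST-fused cytoplasmic domain of human EGFR d746-750/T790M/C797S (Sf9-expressed) was incubated with 250 nM biotinylated peptide, 6 μM ATP, 10 mM MgCl2 and 10 mM MnCl2 (2.5% DMSO) for 120 min at 25 °C. After an EDTA stop, phosphotyrosine was detected by Eu-PT66/SureLight APC-SA TR-FRET (665/620 nm, excitation 337 nm). Background wells received EDTA before enzyme.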

human EGFR (WT) = target: T3, human EGFR (WT) (Homo sapiens, UniProt P00533); test: Inhibitory activity against EGFR (WT) kinase; format: biochemical
T3 construct: purchased Carna Biosciences Inc., Japan
T3 sequence (P00533 25-1210): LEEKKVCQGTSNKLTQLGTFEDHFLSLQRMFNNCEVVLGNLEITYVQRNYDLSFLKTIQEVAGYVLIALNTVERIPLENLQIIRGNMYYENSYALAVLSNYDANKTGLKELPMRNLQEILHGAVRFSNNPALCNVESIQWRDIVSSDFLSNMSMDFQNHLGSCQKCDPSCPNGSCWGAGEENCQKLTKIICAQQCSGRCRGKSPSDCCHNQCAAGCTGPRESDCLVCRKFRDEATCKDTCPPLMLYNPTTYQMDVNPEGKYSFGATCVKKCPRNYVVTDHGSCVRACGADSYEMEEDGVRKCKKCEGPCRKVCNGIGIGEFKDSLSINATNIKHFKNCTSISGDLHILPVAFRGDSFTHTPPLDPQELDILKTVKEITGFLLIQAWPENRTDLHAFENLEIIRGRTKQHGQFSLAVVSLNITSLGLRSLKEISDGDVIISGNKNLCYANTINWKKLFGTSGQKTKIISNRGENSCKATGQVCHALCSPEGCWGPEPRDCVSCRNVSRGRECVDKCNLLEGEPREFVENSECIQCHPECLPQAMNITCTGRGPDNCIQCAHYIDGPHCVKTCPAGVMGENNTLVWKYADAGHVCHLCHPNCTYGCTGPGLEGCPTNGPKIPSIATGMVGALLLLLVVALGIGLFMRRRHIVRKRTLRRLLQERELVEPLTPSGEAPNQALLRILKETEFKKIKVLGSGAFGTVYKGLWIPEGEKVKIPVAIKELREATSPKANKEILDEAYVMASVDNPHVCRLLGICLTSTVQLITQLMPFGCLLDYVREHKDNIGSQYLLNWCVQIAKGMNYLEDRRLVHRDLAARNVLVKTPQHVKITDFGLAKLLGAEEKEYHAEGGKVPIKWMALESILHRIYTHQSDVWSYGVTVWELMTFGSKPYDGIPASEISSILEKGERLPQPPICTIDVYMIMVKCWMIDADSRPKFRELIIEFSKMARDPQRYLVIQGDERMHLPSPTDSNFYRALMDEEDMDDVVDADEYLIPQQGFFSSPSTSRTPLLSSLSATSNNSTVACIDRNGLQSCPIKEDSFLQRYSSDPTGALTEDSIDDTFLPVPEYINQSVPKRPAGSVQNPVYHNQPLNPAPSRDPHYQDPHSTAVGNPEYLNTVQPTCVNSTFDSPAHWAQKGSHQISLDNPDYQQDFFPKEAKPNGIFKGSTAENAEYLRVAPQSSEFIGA
Outline: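 Purified recombinant human wild-type EGFR kinase, with ATP at 1.5 μM final. Compound inhibition of kinase activity read out and fitted to give IC50 (nM).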

human EGFR (L858R/C797S) = target: T4, human EGFR (L858R/C797S) (Homo sapiens, UniProt P00533, C797S/L858R); test: Inhibitory activity against EGFR (L858R/C797S) kinase; format: biochemical
T4 construct: purchased SignalChem
T4 sequence (P00533 25-1210 C797S/L858R): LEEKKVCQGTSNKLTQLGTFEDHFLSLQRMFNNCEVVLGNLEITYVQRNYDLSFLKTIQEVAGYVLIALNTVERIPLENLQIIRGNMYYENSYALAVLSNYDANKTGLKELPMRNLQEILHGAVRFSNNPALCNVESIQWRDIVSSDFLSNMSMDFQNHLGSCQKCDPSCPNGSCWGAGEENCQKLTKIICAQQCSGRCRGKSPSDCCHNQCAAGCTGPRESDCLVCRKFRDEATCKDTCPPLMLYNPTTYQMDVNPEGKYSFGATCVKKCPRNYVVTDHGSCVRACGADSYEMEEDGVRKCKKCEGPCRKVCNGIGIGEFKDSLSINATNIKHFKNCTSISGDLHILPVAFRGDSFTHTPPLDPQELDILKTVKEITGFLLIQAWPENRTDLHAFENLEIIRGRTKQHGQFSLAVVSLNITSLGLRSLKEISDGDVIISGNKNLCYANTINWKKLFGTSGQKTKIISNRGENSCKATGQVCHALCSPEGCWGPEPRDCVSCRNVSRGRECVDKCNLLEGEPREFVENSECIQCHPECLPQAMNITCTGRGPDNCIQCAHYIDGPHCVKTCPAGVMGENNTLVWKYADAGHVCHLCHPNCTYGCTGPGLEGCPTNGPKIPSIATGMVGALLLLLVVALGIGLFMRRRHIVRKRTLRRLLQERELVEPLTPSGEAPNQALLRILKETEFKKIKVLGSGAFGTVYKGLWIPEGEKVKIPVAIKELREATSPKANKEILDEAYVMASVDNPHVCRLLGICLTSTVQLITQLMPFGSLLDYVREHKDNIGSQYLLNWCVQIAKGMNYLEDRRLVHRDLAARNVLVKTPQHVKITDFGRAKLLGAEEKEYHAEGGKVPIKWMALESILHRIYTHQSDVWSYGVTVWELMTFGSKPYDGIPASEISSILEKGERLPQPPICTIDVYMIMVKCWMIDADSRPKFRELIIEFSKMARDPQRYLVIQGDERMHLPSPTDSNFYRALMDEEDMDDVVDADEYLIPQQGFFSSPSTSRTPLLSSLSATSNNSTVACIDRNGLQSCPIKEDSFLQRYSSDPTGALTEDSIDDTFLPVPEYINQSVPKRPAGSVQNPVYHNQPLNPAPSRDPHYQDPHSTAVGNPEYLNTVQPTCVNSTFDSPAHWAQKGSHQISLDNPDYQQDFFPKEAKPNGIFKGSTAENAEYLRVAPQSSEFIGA
Outline: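 Purified recombinant human EGFR (C797S/L858R) kinase, final ATP 4 μM, 90-minute kinase reaction, otherwise per the EGFR (d746-750/C797S) protocol. IC50 (nM) determined from inhibition data.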

[5] = target: T5, human EGFR (d746-750/C797S) (Homo sapiens, UniProt P00533, C797S/DEL746-750); test: Inhibitory activity against EGFR (d746-750/C797S) kinase; format: biochemical
T5 construct: purchased SignalChem
T5 sequence (P00533 with tags, fused parts or gaps DEL746-750/C797S): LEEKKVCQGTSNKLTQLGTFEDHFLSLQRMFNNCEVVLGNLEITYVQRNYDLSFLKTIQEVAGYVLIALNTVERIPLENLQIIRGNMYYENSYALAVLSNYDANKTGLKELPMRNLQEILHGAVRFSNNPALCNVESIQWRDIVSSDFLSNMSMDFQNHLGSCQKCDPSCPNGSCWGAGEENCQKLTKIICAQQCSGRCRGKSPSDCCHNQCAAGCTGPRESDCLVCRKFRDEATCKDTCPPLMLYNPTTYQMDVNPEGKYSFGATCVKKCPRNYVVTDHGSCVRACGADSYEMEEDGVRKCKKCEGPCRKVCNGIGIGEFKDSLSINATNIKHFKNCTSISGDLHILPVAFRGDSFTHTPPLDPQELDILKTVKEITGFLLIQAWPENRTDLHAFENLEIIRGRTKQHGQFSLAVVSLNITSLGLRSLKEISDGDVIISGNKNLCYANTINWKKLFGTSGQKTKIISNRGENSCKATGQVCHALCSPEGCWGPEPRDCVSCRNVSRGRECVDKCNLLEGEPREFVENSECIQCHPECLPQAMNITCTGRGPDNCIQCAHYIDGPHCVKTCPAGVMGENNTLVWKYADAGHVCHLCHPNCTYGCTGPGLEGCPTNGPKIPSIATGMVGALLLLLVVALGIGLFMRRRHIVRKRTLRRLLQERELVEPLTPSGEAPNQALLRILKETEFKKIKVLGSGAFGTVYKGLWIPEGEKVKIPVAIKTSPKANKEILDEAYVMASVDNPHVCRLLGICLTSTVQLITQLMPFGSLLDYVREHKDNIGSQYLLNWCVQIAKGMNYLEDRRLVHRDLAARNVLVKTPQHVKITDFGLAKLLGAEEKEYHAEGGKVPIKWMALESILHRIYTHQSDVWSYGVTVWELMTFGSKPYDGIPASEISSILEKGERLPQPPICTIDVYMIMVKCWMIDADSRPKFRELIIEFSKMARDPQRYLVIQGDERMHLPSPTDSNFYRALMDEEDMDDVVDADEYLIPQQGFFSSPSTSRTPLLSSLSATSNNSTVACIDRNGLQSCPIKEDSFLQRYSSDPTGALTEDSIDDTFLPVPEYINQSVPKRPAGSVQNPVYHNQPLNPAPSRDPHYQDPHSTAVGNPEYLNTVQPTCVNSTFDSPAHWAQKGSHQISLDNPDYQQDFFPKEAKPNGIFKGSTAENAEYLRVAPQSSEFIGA
Outline: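 Recombinant human EGFR d746-750/C797S in 13.5 mM Tris pH 7.5 with 2 mM DTT and 0.009% Tween-20. Reaction ran 60 min with 14 μM ATP, 20 mM MgCl2 and 12.5 mM MnCl2, stopped by 40 mM EDTA. IC50 in nM.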

[6] = Test Example 1, Table 3, ATP 0.5 μM
[7] = Test Example 1, Table 2, ATP 6 μM, 25° C., 120 minutes
[8] = Test Example 1, Table 6, ATP 1.5 μM
[9] = Test Example 1, Table 5, ATP 4 μM, 90 minutes
[10] = Test Example 1, Table 4, ATP 14 μM, 60 minutes
[11] = Test Example 3, Table 9; same procedures as 2) in Test Example 1
[12] = Test Example 3, Table 8; same procedures as 1) in Test Example 1
[13] = Test Example 3, Table 12; same procedures as 5) in Test Example 1
[14] = Test Example 3, Table 11; same procedures as 4) in Test Example 1
[15] = Test Example 3, Table 10; same procedures as 3) in Test Example 1

SMILES | GI50 [1] [nM] | GI50 (Ba/F3-EGFR (WT)) [nM] | GI50 [2] [nM] | IC50 [3, 6] [nM] | IC50 [4, 7] [nM] | IC50 (human EGFR (WT); [8]) [nM] | IC50 (human EGFR (L858R/C797S); [9]) [nM] | IC50 [5, 10] [nM] | IC50 [3, 11] [nM] | IC50 [4, 12] [nM] | IC50 (human EGFR (WT); [13]) [nM] | IC50 (human EGFR (L858R/C797S); [14]) [nM] | IC50 [5, 15] [nM]
C#Cc1c(-c2cnc3ccccc3c2)c2c(N)ncnc2n1C12CCC(NC(=O)c3cnco3)(CC1)C2 [Example 47] | 33 | 2060 | 382 | – | – | – | – | – | – | – | – | – | –
C#Cc1c(-c2cnc3ccccc3c2)c2c(N)ncnc2n1C12CCC(NC(=O)c3cnnn3C)(CC1)C2 [Example 22, N-(4-(4-Amino-6-ethynyl-5-(quinolin-3-yl)-7H-pyrrolo[2,3-d]pyrimidin-7-yl)bicyclo-[2.2.1]heptan-1-yl)-1-methyl-1H-1,2,3-triazole-5-carboxamide] | – | – | – | 0.42 | < 0.3 | 0.55 | 0.35 | < 0.3 | – | – | – | – | –
C#Cc1c(-c2cnc3ccccc3c2)c2c(N)ncnc2n1C12CCC(NC(=O)c3cnc(Cl)cn3)(CC1)C2 [Example 15] | – | – | – | 0.52 | < 0.3 | 1.5 | 1 | 0.79 | – | – | – | – | –
C#Cc1c(-c2cnc3ccccc3c2)c2c(N)ncnc2n1C12CCC(NC(=O)c3nccn4ccnc34)(CC1)C2 [Example 42] | – | – | – | < 0.3 | < 0.3 | 0.31 | 0.43 | 0.48 | – | – | – | – | –
C#Cc1c(-c2cnc3ccccc3c2)c2c(N)ncnc2n1C12CCC(NC(=O)c3cncn(C)c3=O)(CC1)C2 [Example 25, N-(4-(4-Amino-6-ethynyl-5-(quinolin-3-yl)-7H-pyrrolo[2,3-d]pyrimidin-7-yl)bicyclo-[2.2.1]heptan-1-yl)-1-methyl-6-oxo-1,6-dihydropyrimidine-5-carboxamide] | – | – | – | 0.6 | < 0.3 | 0.51 | 0.59 | 0.4 | – | – | – | – | –
C#Cc1c(-c2cnc3ccccc3c2)c2c(N)ncnc2n1C12CCC(NC(=O)OCC)(CC1)C2 [Example 12, Ethyl (4-(4-amino-6-ethynyl-5-(quinolin-3-yl)-7H-pyrrolo[2,3-d]pyrimidin-7-yl) -bicyclo[2.2.1]heptan-1-yl)carbamate] | – | – | – | 0.39 | < 0.3 | 2.1 | 3.8 | 2.4 | – | – | – | – | –
C#Cc1c(-c2cnc3ccccc3c2)c2c(N)ncnc2n1C12CCC(NC(=O)c3nccnn3)(CC1)C2 [Example 19, N-(4-(4-Amino-6-ethynyl-5-(quinolin-3-yl)-7H-pyrrolo[2,3-d]pyrimidin-7-yl)bicyclo-[2.2.1]heptan-1-yl)-1,2,4-triazine-3-carboxamide] | – | – | – | < 0.3 | < 0.3 | 0.39 | 0.3 | < 0.3 | – | – | – | – | –

Other lines, results leading:

GI50 [1] [nM] | GI50 (Ba/F3-EGFR (WT)) [nM] | GI50 [2] [nM] | IC50 [3, 6] [nM] | IC50 [4, 7] [nM] | IC50 (human EGFR (WT); [8]) [nM] | IC50 (human EGFR (L858R/C797S); [9]) [nM] | IC50 [5, 10] [nM] | IC50 [3, 11] [nM] | IC50 [4, 12] [nM] | IC50 (human EGFR (WT); [13]) [nM] | IC50 (human EGFR (L858R/C797S); [14]) [nM] | IC50 [5, 15] [nM] | SMILES
– | – | – | – | – | – | – | – | 1.6 | < 0.3 | 2.7 | 1.1 | 0.54 | C#Cc1c(-c2cnc3ccccc3c2)c2c(N)ncnc2n1C12CCC(NC(=O)N3CCOCC3)(CC1)C2 [Example 61, N-(4-(4-Amino-6-ethynyl-5-(quinolin-3-yl)-7H-pyrrolo[2,3-d]pyrimidin-7-yl)bicyclo-[2.2.1]heptan-1-yl)morpholine-4-carboxamide]
– | – | – | 0.34 | < 0.3 | 0.94 | 0.99 | 0.83 | – | – | – | – | – | C#Cc1c(-c2cnc3ccccc3c2)c2c(N)ncnc2n1C12CCC(NC(=O)c3ncccn3)(CC1)C2 [Example 51]
– | – | – | 0.38 | 0.36 | 2.9 | 1.5 | 1 | – | – | – | – | – | C#Cc1c(-c2cnc3ccccc3c2)c2c(N)ncnc2n1C12CCC(NCC#N)(CC1)C2 [Example 4, 2-((4-(4-Amino-6-ethynyl-5-(quinolin-3-yl)-7H-pyrrolo[2,3-d]pyrimidin-7-yl)bicyclo-[2.2.1]heptan-1-yl)amino)acetonitrile]
– | – | – | – | – | – | – | – | < 0.3 | < 0.3 | 0.43 | 0.36 | < 0.3 | C#Cc1c(-c2cnc3ccccc3c2)c2c(N)ncnc2n1C12CCC(NC(=O)c3cnc(CN(C)C)cn3)(CC1)C2 [Example 68, N-(4-(4-Amino-6-ethynyl-5-(quinolin-3-yl)-7H-pyrrolo[2,3-d]pyrimidin-7-yl)bicyclo-[2.2.1]heptan-1-yl)-5-((dimethylamino)methyl)pyrazine-2-carboxamide]
– | – | – | – | – | – | – | – | 0.47 | 0.37 | 2.2 | 1.7 | 0.83 | C#Cc1c(-c2cnc3ccccc3c2)c2c(N)ncnc2n1C12CCC(NC(=O)OCc3cnccn3)(CC1)C2 [Example 59, Pyrazin-2-ylmethyl (4-(4-amino-6-ethynyl-5-(quinolin-3-yl)-7H-pyrrolo[2,3-d]-pyrimidin-7-yl)bicyclo[2.2.1]heptane-1-yl)carbamate]
– | – | – | 0.52 | < 0.3 | 1.5 | 0.62 | 0.49 | – | – | – | – | – | C#Cc1c(-c2cnc3ccccc3c2)c2c(N)ncnc2n1C12CCC(NC(=O)c3cnccc3OC)(CC1)C2 [Example 31, N-(4-(4-Amino-6-ethynyl-5-(quinolin-3-yl)-7H-pyrrolo[2,3-d]pyrimidin-7-yl)bicyclo-[2.2.1]heptan-1-yl)-4-methoxynicotinamide]
